According to patent US20230301890A1, “COMPOSITIONS COMPRISING UROLITHINS” (Amazentis SA, priority 2022, published 2023):
Entries after “also recorded” stand apart in the source; their conditions may differ.

Legend:
[1] = test system: Normal Adult Human Dermal Fibroblasts (NHDF-Ad); assay: RNA sequencing gene expression in human primary dermal fibroblasts; type: cell-based; conditions: for expression of MMP1: vs DMSO/vehicle
Experimental: Study was conducted on Normal Adult Human Dermal Fibroblasts (NHDF-Ad) from two pooled donors (Catalog #: CC-2511) and Normal Adult Human Epidermal Keratinocytes (NHEK-Ad) from two pooled donors (Catalog #: 00192627, Lonza). The primary skin cells were amplified in flask and seeded in 12-well cell culture plates, filled with 1 mL of culture medium and then incubated at 37° C. with 5% CO2 and saturated hygrometry. The basic culture medium of human dermal fibroblasts was composed of FBM™ medium (Fibroblast Growth Basal Medium) supplemented with insulin 0.1%, hFGF-B 0.1%, GA-1000 0.1% and FBS 2%. The basic culture medium of human keratinocytes was composed of KBM™ Gold medium (Keratinocytes Basal Medium) supplemented with Hydrocortisone, Transferrin, Epinephrine, Gentamycin, Amphotericin B, BPE, hEGF and Insulin. Primary cells were treated at confluency (approximatively 250000 cells per well) with 0.1% DMSO (control), 2.5 μM and 10 μM of Urolithin A for 24 h, and harvested for RNA sequencing and expression profiling using the NGS platform.

UVB induced erythema = assay: Clinical trial: UVB induced erythema, Chromameter a*; type: in vivo, human
Experimental: A sunburn of 1.25 minimal erythemal dose (MED) was evoked on one set of test areas and 1.6 MED on the other set of test areas by irradiation with a sun simulator. On 3 test areas of each set products was applied 24 hours before irradiation, on 3 other test areas of each set products was applied immediately after irradiation. An irradiated but untreated test area served as a control. The effect of the test products was assessed by visual evaluation of erythema and instrumental color measurements by Chromameter before and after irradiation. The study was reviewed by an independent institutional review board (IRB) for ethical approval.
The following efficacy assessment(s) will be performed: • Erythema (a*) by Chromameter (See FIG. 10) • Visual erythema evaluation (trained grader)
The following instrumental measurement(s) will be performed: • CHROMAMETER CR 400 (Minolta, Device D-Langenhagen, Germany): Skin color can objectively be quantified by reflectance measurements with a tri-stimulus Chromameter. The measuring principle is based on the reflection of a Xenon flash that diffusely lightens the skin on an area of 8 mm in diameter. The vertically reflected light from the skin is then detected by high-sensitive silica photodiodes that provide a color analysis of the detected light. The Chromameter defines the measured color in the L*a*b* color coordinate system. The L*-value defines the brightness. The color is defined by the parameters a* (red-green axis; negative a*-value green, positive a*-value red) and b* (blue-yellow axis, negative b*-value blue, positive b*-value yellow). The a* value correlates well with visual assessments of skin redness (erythema), a* is a measure for erythema. […]

[2] = test system: wrinkles in the periorbital regions; assay: Aging study 2: skin roughness (wrinkle) by DermaTOP; type: in vivo, human; conditions: 1% UA creams, 2, 4 and 8 weeks, vs untreated side; listed as UA
Excerpt: Anti-wrinkle efficacy will be assessed in the periorbital regions by investigating the three-dimensional structure of the wrinkles (DermaTOP). Skin hydration, skin elasticity effects and skin barrier function will be investigated by Corneometer, Cutometer and Tewameter measurements. On a subgroup of 12 subjects the ceramide content, including barrier lipids, in the Stratum Corneum will be performed by Raman Spectroscopy. […]
DERMATOP blue (Eo Tech SA, Marcoussis France): Using phase-shifted and gray-coded measurements of human skin the three-dimensional surface structure of the investigated skin site is captured. […] The fringes that are projected under a defined triangulation angle onto the surface of the measured target with a sinus-like intensity of brightness are detected with a CCD camera. The three-dimensional skin surface profile is calculated from the position of the fringes in combination with the gray values of each pixel. From the captured three-dimensional structure, roughness parameters are calculated. […]

Structure (SMILES): O=c1oc2cc(O)ccc2c2ccc(O)cc12 [Urolithin A]
- collagen gene expression (COL1A1) ([1]; 2.5 μM or 10 μM, 24 hours): did not alter
- expression of MMP1 ([1]; 2.5 μM or 10 μM, 24 hours): decreases
- expression of MMP1 ([1]; 2.5 μM or 10 μM, 24 hours, listed as UA): suppressed the expression
- expression of mitophagy genes PARKIN and PINK1 and autophagy genes MAP1LC3 and ULK1 ([1]; 2.5 μM or 10 μM, 24 hours, vs vehicle): dose-dependent increase
- expression of mitophagy marker PINK1 ([1]; 2.5 uM or 10 uM, vs DMSO): increased
- skin redness, erythema (a*) by Chromameter vs untreated area (UVB induced erythema; skin cream with 1% Urolithin A, 1.6 MED UVB, 24 hours after irradiation): reduction; also recorded: significantly less skin redness
- reduction of skin redness/erythema (UVB induced erythema; skin cream with 1% Urolithin A, 1.6 MED UVB, vs untreated area): approximately 14.3%
- skin redness/erythema (UVB induced erythema; skin cream with Urolithin A at 0.5%): did not show any significant effect
- wrinkles (finer and rougher skin structures, Ra and Rz) [2]: significant anti-wrinkle effects; also recorded: significant impact on reducing wrinkles
